“Also recorded” adds a separate entry of the source.
Key:
[1] = system: CHO cells expressing human platelet receptors; assay: Cell adhesion to immobilized vWF under flow; assay type: cell-based, Chinese Hamster; details: for stable adhesion of vector-transfected 123 cells to vWF under flow / stable adhesion of PKG-expressing 123 cells (123PKG) to vWF under flow: FIG. 2C, sildenafil 5 μM; for stable adhesion of PKG-expressing 123 cells (123PKG) to vWF under flow: RGDS 4 mM, 8-bromo-cGMP not shown
Description: CHO cells expressing human platelet receptors were resuspended in modified Tyrode's buffer, pH 7.4, containing 1 mg/mi of bovine serum albumin (BSA) (see Ref. 46), and final cell count was 5×10^5/ml. […] Purified human vWF (10 μg/ml in 0.1 M NaHCO3, pH 8.3) was added to glass microcapillary tubes (inner diameter of 1.33 mm and a length of 7.2 cm), and incubated at 4° C. for 20 h. The vWF-coated microcapillary tubes then were incubated with 5% BSA. After washing, the cell suspension was aspirated through the tube by a syringe pump (Harvard Apparatus Inc.) at desired shear rates for 1.2 minutes and washed with modified Tyrode's buffer for additional 10 minutes at the same shear rates to remove transiently adherent cells. The experiments were continuously recorded on videotape using a video cassette recorder (model 9500, Sony). The number of stably adherent cell on immobilized vWF was counted on images obtained at 20 randomly selected positions in the vWF-coated tubes.
In FIGS. 2A and B, vWF-coated capillary tubes were perfused with equivalent numbers (5×10^5/ml) of CHO cells expressing recombinant GPLb-JX alone (1b9), integrin αIIbβ3 alone (2b3a), both GPIb-IX and integrin αIIbβ3 (123) or expressing GPJb-JX, integrin α^IIbβ3 and PKG Ia (123PKG) at a shear rates of 800 s^−1 (A) or 1500 s^−1 (B) for 1.2 minutes, and then perfused with the modified Tyrodes buffer for 10 minutes at the same shear rates to wash out transient adherent cells. The expenments were recorded in real time. Cells stably adherent to vWF-coated capillary tubes at 20 randomly selected locations were counted.
In FIG. 2C, vector-transfected 123 cells (123) or 123PKG cells also was perfused into vWF-coated glass capillary tubes as described in FIG. 2A in the absence or presence (+RGDS) of an integrin inhibitor RGDS peptide (4 mM) and in the absence (Control) or presence of cGMP-enhancing drug, sildenafil (5 μM). […] The experiments were repeated at least three times.

[2] = system: platelets; assay: Ristocetin-induced vWF-dependent platelet aggregation in platelet-rich plasma; assay type: cell-based, human; details: PRP; agent added with subthreshold ristocetin (1 mg/mm [sic]) (or botrocetin); FIGS. 3B, 6A
Description: (§1) Fresh blood from healthy volunteers was anticoagulated with 1/7 volume of ACD (2.5% trisodium citrate, 2% dextrose and 1.5% citric acid). Platelets were washed with CGS buffer (sodium chloride 0.12 M, trisodium citrate 0.0129 M and d-glucose 0.03 M, pH 6.5), resuspended in modified Tyrode's solution and allowed to incubate at 22° C. for 1 hours as previously described. In experiments using platelet-rich plasma (PRP), 1/10 volume of 3.8% trisodium citrate was used as anticoagulant. Platelet aggregation was measured using a turbidometric platelet aggregometer (Chrono-Log) at 37° C. vWF-dependent platelet aggregation was induced by addition of ristocetin or botrocetin to PRP. To differentiate CPIb-IX-mediated platelet agglutination from the second wave of integrin-dependent platelet aggregation, final concentrations of ristocetin were adjusted in each experiment to achieve a two-wave curve of aggregation. Washed platelets were used in platelet aggregation induced by a-thrombin (Enzyme Research Laboratories). To examine the effects of PKG, 100 μM of membrane permeable cGMP analogs, 8-bromo-cGMP or 8-dibutyl-cGMP (Calbiochem), or 1 μM sildenafil citrate (Pfizer) and added simultaneously with subthreshold concentrations of agonists. PKG inhibitors KT5823 (2 pM) and Rp-8PCPT-cGMP (0.2 mM) were preincubated with platelets at 37° C. for 5 minutes before addition of agonists.
In FIG. 3A, platelet rich-plasma (PRP) was preincubated at 37° C. for 5 mm with PKG inhibitors KT5823 (2 pM) or Rp-8pCPT-cGMP (0.2 μM). PRP was also incubated with DMSO (vehicle for KT5823), a PKA inhibitor, KT5720 (2 pM), or buffer (Control). The vWF modulator, ristocetin, was then added to induce vWF-GPIb-IX interaction. […] In FIG. 3B, a subthreshold concentration of ristocetin was added to PRP immediately followed by addition of 8-bromo-cGMP or buffer (Control). PRP also was preincubated with integrin inhibitor RGDS before adding ristocetin and 8-bromo-cGMP. In FIG. 3C, platelets were preincubated with or without PKG inhibitor KT5823, then allowed to spread on vWF-coated glass chamber slides. Platelets were stained with an anti-GPIb antibody, and fluorescein-labeled secondary antibody. The slides were imaged under a confocal microscope (magnification =630×).
(§2) In FIG. 6A, increasing concentrations of sildenafil or control 0.15 M NaCl solution were added to platelet-rich plasma followed by a subthreshold concentration of ristocetin. Platelet aggregation was recorded using a platelet aggregometer. In FIG. 6B, sildenafil or control buffer was added to washed platelets followed by addition of subthreshold doses of thrombin to induce platelet aggregation. It was noted that platelet aggregation occurs in the presence of sildenafil. The figure includes the representative results of at least three experiments.
(§3) In FIG. 7A, PRP was preincubated with 0.1 mM 8-bromo-cGMP for increasing lengths of time at 37° C. as indicated. The vWF modulator, ristocetin (1.25 mg/ml), then was added to induce platelet aggregation in a turbidometric platelet aggregometer. In FIG. 7B, PRP was preincubated with a high concentration of 8-bromo-cGMP (1 mM) for 5 minutes. Ristocetin then was added to induce platelet aggregation. In FIGS. 7C and 7D, washed platelets in modified Tyrode's solution were preincubated with 1 mM 8-bromo-cGMP (C), or various concentrations of 8-pCPT-cGMP (D) at 37° C. for 5 minutes. Thrombin (0.05 u/ml) then was added to induce platelet aggregation.

[3] = system: platelets; assay: Low-dose α-thrombin-induced aggregation of washed platelets; assay type: cell-based, human; details: washed platelets; thrombin 0.02 units/ml; FIGS. 5B, 6B
Description: as §1
In FIG. 5A, washed platelets were preincubated with 40 pg/mi anti-GPIba monoclonal antibody SZ2, integrin inhibitor RGDS, or inhibitors of PKG, KT5823 (2 μM) or Rp-8pCPT-cGMP (0.2 mM) (Calbiochem), for 5 min. Platelets also were preincubated with DMSO (vehicle for KT5823), KT5720 or buffer (Control) as controls. α-Thrombin (0.05 units/mi) then was added to induce platelet aggregation. Nonspecific JgG and RGES peptides also were examined as additional controls, but had no effect (not shown). In FIG. 5B, a subthreshold dose of thrombin was added to platelets immediately followed by addition of PKG activator 8-bromo-cGMP or buffer (Control). Shown in the figure are the representative results of at least three experiments.
as §2, §3

[4] = system: platelets; assay: Platelet aggregation/activation in vitro with sildenafil by itself; assay type: cell-based, human
[5] = system: platelets; details: agonists ADP, collagen, A23 187, U46619, platelet activating factor; Ref. 38; cited from earlier work
[6] = clinical reports, Refs. 39-42; cited from earlier work
[7] = identical flow conditions, not shown

SMILES: CCCc1nn(C)c2c(=O)[nH]c(-c3cc(S(=O)(=O)N4CCN(C)CC4)ccc3OCC)nc12 [sildenafil]
- stable adhesion of vector-transfected 123 cells to vWF under flow [1]: enhancing effects
- stable adhesion of PKG-expressing 123 cells (123PKG) to vWF under flow [1]: enhanced
- stable adhesion of PKG-expressing 123 cells (123PKG) to vWF under flow ([1]; listed as Sildenafil): significantly increased
- stable adhesion of vector-transfected 123 cells to vWF under flow ([1]; listed as Sildenafil): significantly increased
- stable adhesion of 1b9 cells (GPIb-IX alone) under flow [1, 7]: no effect
- stable adhesion of 2b3a cells (integrin αIIbβ3 alone) under flow [1, 7]: no effect
- platelet aggregation together with a subthreshold concentration of ristocetin [2]: induces platelet aggregation
- platelet aggregation together with a subthreshold concentration of thrombin [3]: induces platelet aggregation
- platelet aggregation in vitro ([4]; sildenafil, not shown): did not inhibit
- platelet activation by sildenafil by itself ([4]; without platelet agonist): not sufficient to cause platelet activation
- platelet activation in vitro, sildenafil alone [5]: did not inhibit; also recorded: does not inhibit
- thrombotic events (myocardial infarction and cerebral thrombosis) in some patients [6]: associated with severe thrombotic events
